The target in the experiment is T1, matriptase (Homo sapiens, UniProt Q9Y5Y6).
T1 construct: gene ST14; catalytic domain; amino acids 596–855
T1 sequence (Q9Y5Y6 596-855): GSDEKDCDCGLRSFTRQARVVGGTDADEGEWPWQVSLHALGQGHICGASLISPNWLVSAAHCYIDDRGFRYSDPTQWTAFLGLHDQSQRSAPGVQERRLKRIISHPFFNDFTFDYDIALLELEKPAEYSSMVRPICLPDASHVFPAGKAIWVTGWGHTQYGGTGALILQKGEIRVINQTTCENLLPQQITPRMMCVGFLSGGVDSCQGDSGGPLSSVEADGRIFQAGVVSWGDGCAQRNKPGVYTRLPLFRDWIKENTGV
Nature of the experiment: isothermal titration calorimetry at […] °C ([…] stoichiometry); also enzyme inhibition, Ki =[…]. The class given is binding. On the technique in general: In ITC the heat of successive injections is recorded.

Molecules are shown by their SMILES.

For orientation: Kd means a measure of binding affinity in units of concentration. Low readings indicate a tighter complex, high ones a looser complex. Compound `N=C(N)c1cccc(C[C@H](NS(=O)(=O)c2cccc(NC(=O)CCN)c2)C(=O)N2CCC(CCN)CC2)c1` [compound 59, (S)‐3‐amino‐N‐(3‐(N‐(1‐(4‐(2‐aminoethyl)piperidin‐1‐yl)‐3‐(3‐carbamimidoylphenyl)‐1‐oxopropan‐2‐yl)sulfamoyl)phenyl)propanamide × 3HCl] returned a Kd of 20 nM.

Source of the values: paper PMC5599990, “Matriptase Induction of Metalloproteinase‐Dependent Aggrecanolysis In Vitro and In Vivo: Promotion of Osteoarthritic Cartilage Damage by Multiple Mechanisms” (Arthritis & Rheumatology (Hoboken, N.j.), 2017).
